Data: patent US20230302036A1, “COMPOSITIONS FOR TREATMENT OF SPINAL MUSCULAR ATROPHY” (priority 2020, published 2023)
Oligonucleotides are written 5' to 3', each unit as a sugar letter and its base; * is a phosphorothioate linkage, no mark a phosphodiester; rarer units and linkages stand in square brackets, end groups in braces. Plain capitals give the bases only. e = 2'-O-(2-methoxyethyl) (MOE); [5mC] = 5-methylcytosine

Legend:
[1] = test system: H3K9me2 along the human SMN2 transgene; assay: ChIP-qPCR of H3K9me2 along the human SMN2 transgene in brain and liver of P7 SMA mice; assay type: in vivo, mouse; conditions: P7 SMA mice injected with ASO1
Procedure: H3K9me2 (left) and total RNAPII (right) distribution along the human SMN2 transgene, assessed by ChIP-qPCR, in brain (FIG. 12A) and liver (FIG. 12B) of P7 SMA mice injected with ASO1. Vertical arrows indicate the approximate location of the target site for ASO1 on the pre-mRNA. Three independent immunoprecipitation replicates were conducted per experiment. Data are represented as mean ± S.D. (n = 3, *p < 0.05, two-tailed Student’s t test).
(§1) Approximately 2×10^6 HEK293T cells per sample were treated for 10 min in 1% (v/v) formaldehyde at room temperature to crosslink protein-DNA complexes. Crosslinking was stopped with glycine at a final concentration of 125 mM. Cells were washed twice with cold PBS and swelled on ice for 10 min in 25 mM HEPES pH 8, 1.5 mM MgCl2, 10 mM KCl, 0.1% NP-40, 1 mM DTT and 1× protease inhibitor cocktail set III (Calbiochem). Following Dounce homogenization, the nuclei were collected and resuspended in 1 ml sonication buffer (50 mM HEPES pH 8, 140 mM NaCl, 1 mM EDTA, 0.1% sodium deoxycholate, 0.1% SDS and 1× protease inhibitor cocktail). DNA was sonicated in an ultrasonic bath (Bioruptor Diagenode) to an average length of 200-500 bp. After addition of 1% (v/v) Triton X-100, samples were centrifuged at 15,000 ×g. […] Immunoprecipitated DNA (1.5 µl) and serial dilutions of the 10% input DNA (1:4, 1:20, 1: 100, and 1:500) were analyzed by SYBR-Green real-time qPCR.

[2] = test system: H3K9me2 along SERF1A, MYOD, GAPDH; assay: Specificity control ChIP-qPCR of H3K9me2 on SERF1A, MYOD and GAPDH in HEK293T cells; assay type: cell-based, human
Procedure: FIGS. 6A-6D show antisense oligonucleotides and their effects on chromatin. […] Uppercase, exonic nucleotide sequence. Lowercase, intronic sequences. Upstream highlight, binding site for ASO1. Downstream highlight, binding site for ASO2. Levels of H3K9me2 deposition along small EDRK-rich factor 1A (SERF1A, upstream of SMN2) (FIG. 6B), Myoblast Determination Protein (MYOD) (FIG. 6C), and Glyceraldehyde 3-phosphate dehydrogenase (GAPDH) (FIG. 6D), were assessed by ChIP-qPCR in HEK293T cells. Data represented as mean ± S.D. (n = 4, *p < 0.05, two-tailed Student’s t test).
as §1, with “cocktail).” for “cocktail). DNA was sonicated in an ultrasonic bath (Bioruptor Diagenode) to an average length of 200-500 bp. After addition of 1% (v/v) Triton X-100, samples were centrifuged at 15,000 ×g.”

With “ASO1: 5′-ATTCACTTTCATAATGCTGG-3′ 2′-O-methoxyethyl-modified oligonucleotide with phosphorothioate backbone and all 5-methyl cytosines; nusinersen variant with 2-nucleotide extension (antisense eA*eT*eT*e[5mC]*eA*e[5mC]*eT*eT*eT*e[5mC]*eA*eT*eA*eA*eT*eG*e[5mC]*eT*eG*eG)” the “H3K9 dimethylation on the SMN2 transgene in liver and brain” value [1] was “higher H3K9 dimethylation” and the “H3K9 dimethylation in control genes (same TAD: SERF1A; outside TAD: MYOD, GAPDH)” value [2] was “neither ASO1 nor ASO2 promoted H3K9 dimethylation”.
